Reference: US8598228B2, “Cinnamic acid ascorbates” (Merck Patent GmbH, priority 2009, dated 2013)

Key:
[1] = cited from earlier work; for specific absorbance at the absorbance maximum (ε): MeOH
[2] = UV absorption maximum of product; assay type: physicochemical
Experimental: 20 g of (E)-3-(2,4,5-trimethoxyphenyl)acrylic acid (84 mmol; 1 eq.) are dissolved in 100 ml of dimethylformamide in an argon-flushed three-necked flask, and 11.1 g of diisopropylcarbodiimide (88.1 mmol, 1.05 eq.) are added. After 30 min, ascorbic acid (22.2 g, 126 mmol; 1.5 eq.) dissolved in 45 ml of dimethylformamide is added dropwise. After 30 min at 0° C., the mixture is stirred at room temperature for a further 6 hours. The reaction solution is evaporated to dryness, suspended in ethyl acetate/hexane 1:1 and filtered, and the product is precipitated as a pale-yellow solid by addition of hexane (λmax=354 nm).

SMILES: CCCCC(CC)COC(=O)/C=C\c1ccc(OC)cc1 (stereo not drawn) [cis-EHMC]
- specific absorbance at the absorbance maximum (ε) [1]: 13,500
- λmax(MeOH) [1]: 304 nm

SMILES: COc1cc(OC)c(OC)cc1/C=C/C(=O)OC[C@@H](O)[C@H]1OC(=O)C(O)=C1O [Example 4, (R)-2-((R)-3,4-dihydroxy-5-oxo-2,5-dihydrofuran-2-yl)-2-hydroxyethyl (E)-3-(2,4,5-trimethoxyphenyl)acrylate]
- λmax [2]: 354 nm

SMILES: CCCCC(CC)COC(=O)/C=C/c1ccc(OC)cc1 (stereo not drawn) [trans-EHMC]
- specific absorbance at the absorbance maximum (ε) [1]: 24,550
- λmax(MeOH) [1]: 309 nm
